ChEMBL document CHEMBL1201862, “PubChem BioAssay data set” (2004)
“And” between values parts separate entries of the source, which are not always exact repeats. Equal values may be shown once. The source made the active and inactive calls. Rule as the data show it, for most assays here: actives have a measured AC50 and inactives only a lower limit.

Assays:
[1] = tested on: HeLa; experiment: HeLa cell cytotoxicity, dose response, cytotoxicity control, ATP luminescence, cherry-pick samples (AID 687004); assay type: functional, cell-based; conditions: Homo sapiens
[2] = tested on: HEK293; experiment: HEK293T cell cytotoxicity, dose response, cytotoxicity control, ATP luminescence, cherry-pick samples (AID 687005); assay type: functional, cell-based; conditions: Homo sapiens;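 also: cells exposed to compound for 48 hours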
[3] = HEK293 Cytotoxicity Assay Measured in Cell-Based System Using Plate Reader - 7071-01_Inhibitor_Dose_CherryPick_Activity_Set2.; assay type: functional
[4] = cells; conditions: HEK293
[5] = HepG2 cell cytotoxicity, dose response, cytotoxicity control, ATP luminescence, dry powder, Set4 (AID 743143); assay type: functional, cell-based
[6] = HepG2 hepatoma cell cytotoxicity, dose response, cytotoxicity control, CellTiter-Glo luminescence, dry powder, set 3 (AID 720594); assay type: functional, cell-based
[7] = HeLa cell cytotoxicity, dose response, cytotoxicity control, CellTiter-Glo luminescence, dry powder, set 2 (AID 720593); assay type: functional, cell-based
[8] = CEM21 cell cytotoxicity, dose response, cytotoxicity control, plate reader, dry powder (AID 687026); assay type: functional, cell-based
[9] = HIV Env cell-cell fusion inhibitors, dose response, HIV entry, plate reader, dry powder (AID 687023); assay type: functional, cell-based

Question: Which AC50 [1] does the source give for `Cc1cccc(-c2ccc([C@@H]3[C@H]4CN(C(=O)c5ccc6c(c5)OCO6)CCCCN4[C@H]3CO)cc2)c1` here?
Answer: The AC50 was 20.2 µM (active).

Question: What about the AC50 [2] of the same molecule?
Answer: Its AC50 is 8.23 µM (active).

Question: And the AC50 [3]?
Answer: The AC50 was 8.23 µM (active).

Question: For `Cc1c(C(=O)NCc2ccc(Cl)c(Cl)c2)sc(=O)n1Cc1cccc(F)c1`, which AC50 [4] is on record?
Answer: The AC50 was > 52 µM (inactive).

Question: Which AC50 [5] does the source give for `O=C(CCn1cnc2ccccc2c1=O)NC1CCCc2ccccc21` (centres undefined) here?
Answer: The AC50 was > 52 µM (inactive).

Question: Which AC50 [6] does the source give for `COc1ccc(-c2nnc(NC(=O)c3ccc(S(=O)(=O)N4CCC(C)CC4)cc3)o2)cc1` here?
Answer: Its AC50 is > 52 µM (inactive).

Question: And the AC50 [7]?
Answer: Its AC50 is > 52 µM (inactive).

Question: Which results are given for `O=S(=O)(NCc1ccncc1)c1ccc2c(c1)OCCO2`?
Answer: AC50 [8]: > 70 µM (inactive); AC50 [9]: 125 nM (active) and 167 nM (active)
